According to patent publication US9745267B2, “Compounds as modulators of RORC” (Boehringer Ingelheim International GmbH, priority 2013, dated 2017):
pIC50: −log10 of the molar value.

Molecular target: T1, RORγt (hRORC LBD) (Homo sapiens, UniProt P51449)
T1 construct: expressed in transfected cells; host or cells: HEK 293 (transient cotransfection with pGL4.3 luc2P/GAL4UAS/Hygro reporter)
T1 sequence (P51449 269-508 limits assumed): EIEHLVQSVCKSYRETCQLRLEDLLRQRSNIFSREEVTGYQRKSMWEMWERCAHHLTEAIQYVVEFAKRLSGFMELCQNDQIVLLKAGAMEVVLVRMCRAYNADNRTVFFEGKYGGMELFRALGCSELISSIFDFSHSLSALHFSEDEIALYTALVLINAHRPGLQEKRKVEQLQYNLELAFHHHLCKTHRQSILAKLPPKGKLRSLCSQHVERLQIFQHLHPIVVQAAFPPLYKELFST
Assay: RGA Assay: nuclear receptor transactivation assay, RORγt transactivation of a luciferase reporter
Format: cell-based
Details: transiently transfected HEK 293 cells, Gal4DBD hRORC LBD, 20-24 hours incubation
Procedure: A nuclear receptor transactivation assay was performed to quantitate the ability of test compounds to inhibit RORγt transactivation of a luciferase reporter. A similar assay is described in: Khan et al., Bioorganic & Medicinal Chemistry Letters 23 (2013), 532-536. The system uses transiently transfected HEK 293 cells cotransfected with two plasmids (pGL4.3, luc2P/GAL4UAS/Hygro, and pBIND, Gal4DBD hRORC LBD1-3). The positive control is co-transiently transfected with both plasmids, and the negative control contains the pGL4.3 promoter sequence. Assays were assembled in 384 well plates where transiently transfected cells and test compound at varying concentrations were incubated for 20-24 hours. The next day, assays plates are taken out and equilibrated at RT for 20-30 minutes. Bright-Glo™ Luciferase Assay System is used to detect Luciferase production. After addition of Bright GLO detection reagent, the plates were incubated at RT for 20 minutes. The plates were read on an Envision plate reader to measure luminescence signal. The RLU signal is converted to POC relative to control and blank wells.
Compound Dilution Buffer:
Bright Glo Luciferase Assay System: Promega #E2620
Thaw lysis buffer provided in kit, add 100 mL lysis buffer to substrate powder.

SMILES	pIC50
CCC1(C)CN(C(=O)NCc2ccc(S(=O)(=O)NC)cc2)c2ccc(-c3ccc(F)cc3C)cc21 (stereo not drawn) [Example 53]	5.92
Cc1cc(F)ccc1-c1ccc2c(c1)C1(CCCC1)CN2C(=O)NCc1ccc(S(C)(=O)=O)cc1 [Example 54]	5.89
CNS(=O)(=O)c1ccc(CNC(=O)N2CC3(CCCCC3)c3cc(-c4ccc(F)cc4C)ccc32)cc1 [Example 55]	5.82
CNS(=O)(=O)c1ccc(CNC(=O)N2CC3(CCCC3)c3cc(-c4ccc(O)cc4C(F)(F)F)ccc32)cc1 [Example 56]	6.40
CCC1(C)CN(C(=O)NCc2ccc(S(=O)(=O)NC)cc2)c2ccc(-c3ccc(OC)cc3C(F)(F)F)cc21 (stereo not drawn) [Example 57]	6.11
CNS(=O)(=O)c1ccc(CNC(=O)N2CC(C)(C)c3cc(-c4ccc(OC)cc4C(F)(F)F)ccc32)cc1 [Example 58]	6.06
CNS(=O)(=O)c1ccc(CNC(=O)N2CC(C)(CC(C)C)c3cc(-c4ccc(F)cc4C)ccc32)cc1 (stereo not drawn) [Example 59]	5.82
CNS(=O)(=O)c1ccc(CNC(=O)N2CC3(CCCC3)c3cc(Oc4cc(C(F)(F)F)ccc4C)ccc32)cc1 [Example 60]	6.60
CNS(=O)(=O)c1ccc(CNC(=O)N2CC3(CCCC3)c3cc(Oc4cccc(OC(F)(F)F)c4)ccc32)cc1 [Example 61]	6.14
CNS(=O)(=O)c1ccc(CNC(=O)N2CC3(CCCC3)c3cc(Oc4ccc(F)c(OC(F)(F)F)c4)ccc32)cc1 [Example 62]	6.01
CNS(=O)(=O)c1ccc(CNC(=O)N2CC3(CCCC3)c3cc(Oc4cc(OC)ccc4C)ccc32)cc1 [Example 63]	5.85
CCCC1(C)CN(C(=O)NCc2ccc(S(=O)(=O)NC)cc2)c2ccc(-c3ccc(OC)cc3C(F)(F)F)cc21 (stereo not drawn) [Example 64]	6.33
CCCC1(C)CN(C(=O)NCc2ccc(S(=O)(=O)NC)cc2)c2ccc(-c3ccc(F)cc3C)cc21 (stereo not drawn) [Example 65]	5.82
CCS(=O)(=O)c1ccc(CNC(=O)N2CC3(CCCC3)c3cc(-c4ccc(OC)cc4C(F)(F)F)ccc32)cc1 [Example 66]	6.39
CCS(=O)(=O)c1ccc(CNC(=O)N2CC3(CCCC3)c3cc(-c4ccc(O)cc4C)ccc32)cc1 [Example 67]	6.39
CNS(=O)(=O)c1ccc(CNC(=O)N2CC3(CCCC3)c3cc(-c4ccc(OC)nc4C)ccc32)cc1 [Example 68]	5.72
CCS(=O)(=O)c1ccc(CNC(=O)N2CC3(CCCC3)c3cc(-c4ccc(CO)cc4C)ccc32)cc1 [Example 69]	5.96
CCS(=O)(=O)c1ccc(CNC(=O)N2CC3(CCCC3)c3cc(-c4ccc(C)cc4C#N)ccc32)cc1 [Example 70]	5.89
CCS(=O)(=O)c1ccc(CNC(=O)N2CC3(CCCC3)c3cc(-c4ccc(C#N)cc4C)ccc32)cc1 [Example 71]	6.13
CCS(=O)(=O)c1ccc(CNC(=O)N2CC3(CCCC3)c3cc(-c4cc(F)ccc4CC#N)ccc32)cc1 [Example 72]	5.92
CNS(=O)(=O)c1ccc(CNC(=O)N2CC3(CCCC3)c3cc(-c4ccccc4OC(F)(F)F)ccc32)cc1 [Example 73]	6.34
CNS(=O)(=O)c1ccc(CNC(=O)N2CC3(CCCC3)c3cc(-c4c(F)cccc4C(F)(F)F)ccc32)cc1 [Example 75]	6.85
CCS(=O)(=O)c1ccc(CNC(=O)N2CC3(CCCC3)c3cc(-c4cncnc4C(C)C)ccc32)cc1 [Example 76]	6.21
CNS(=O)(=O)c1ccc(CNC(=O)N2CC3(CCCC3)c3cc(-c4cccc(F)c4C)ccc32)cc1 [Example 77]	6.12
CCS(=O)(=O)c1ccc(CNC(=O)N2CC3(CCCC3)c3cc(-c4ccccc4-c4cnco4)ccc32)cc1 [Example 78]	6.10
CNS(=O)(=O)c1ccc(CNC(=O)N2CC3(CCCC3)c3cc(-c4cc(F)ccc4C(=O)OC)ccc32)cc1 [Example 79]	6.03
CCOC(=O)c1ccc(F)cc1-c1ccc2c(c1)C1(CCCC1)CN2C(=O)NCc1ccc(S(=O)(=O)NC)cc1 [Example 80]	6.01
CNS(=O)(=O)c1ccc(CNC(=O)N2CC3(CCCC3)c3cc(-c4ccccc4COC(C)(C)C)ccc32)cc1 [Example 81]	6.01
COc1ccc(-c2ccc3c(c2)C2(CCCC2)CN3C(=O)NCc2ccc(C#N)cc2)c(C(F)(F)F)c1 [Example 82]	5.96
CNS(=O)(=O)c1ccc(CNC(=O)N2CC3(CCCC3)c3cc(-c4cc(C)c(OC)cc4C)ccc32)cc1 [Example 83]	6.43

Results, then the compound that gave them:

pIC50	SMILES
5.89	CNS(=O)(=O)c1ccc(CNC(=O)N2CC3(CCCC3)c3cc(-c4ccc(F)cc4C(=O)OC)ccc32)cc1 [Example 85]
6.00	CNS(=O)(=O)c1ccc(CNC(=O)N2CC3(CCCC3)c3cc(-c4ccccc4C(C)(C)O)ccc32)cc1 [Example 86]
6.17	CNS(=O)(=O)c1ccc(CNC(=O)N2CC3(CCCC3)c3cc(-c4ccccc4CC(F)(F)F)ccc32)cc1 [Example 87]
6.04	CNS(=O)(=O)c1ccc(CNC(=O)N2CC3(CCCC3)c3cc(-c4ccc(O)cc4C#N)ccc32)cc1 [Example 88]
6.00	CNS(=O)(=O)c1ccc(CNC(=O)N2CC3(CCCC3)c3cc(-c4c(C)cc(CO)cc4C)ccc32)cc1 [Example 89]
6.24	CNS(=O)(=O)c1ccc(CNC(=O)N2CC3(CCCC3)c3cc(-c4c(C)ccc(F)c4CC#N)ccc32)cc1 [Example 90]
6.06	CNS(=O)(=O)c1ccc(CNC(=O)N2CC3(CCCC3)c3cc(-c4c(C)cccc4C#N)ccc32)cc1 [Example 91]
5.96	CNS(=O)(=O)c1ccc(CNC(=O)N2CC3(CCCC3)c3cc(-c4cc(O)ccc4C)ccc32)cc1 [Example 92]
5.92	CNS(=O)(=O)c1ccc(CNC(=O)N2CC3(CCCC3)c3cc(-c4cc(F)c(C#N)cc4C)ccc32)cc1 [Example 93]
6.47	CNS(=O)(=O)c1ccc(CNC(=O)N2CC3(CCCC3)c3cc(C4=C(C)CCCC4)ccc32)cc1 [Example 95]
6.35	COc1ccc(-c2ccc3c(c2)C2(CCCC2)CN3C(=O)NCc2ccc(C#N)cc2OC)c(C(F)(F)F)c1 [Example 96]
6.11	COc1ccc(-c2ccc3c(c2)C2(CCCC2)CN3C(=O)NCc2ccc(C#N)c(C)c2)c(C(F)(F)F)c1 [Example 97]
5.92	CNS(=O)(=O)c1ccc(CNC(=O)N2CC3(CCCC3)c3cc(-c4cc(CN)ccc4C)ccc32)cc1 [Example 98]
5.92	COCCOc1cc(C#N)ccc1CNC(=O)N1CC2(CCCC2)c2cc(-c3ccc(OC)cc3C(F)(F)F)ccc21 [Example 100]
5.96	COCCOc1cc(S(C)(=O)=O)ccc1CNC(=O)N1CC2(CCCC2)c2cc(-c3ccc(OC)cc3C(F)(F)F)ccc21 [Example 101]
6.74	COc1cc(C#N)ccc1CNC(=O)N1CC2(CCCC2)c2cc(-c3ccc(O)cc3C(F)(F)F)ccc21 [Example 102]
5.74	CNS(=O)(=O)c1ccc(CNC(=O)N2CC3(CCCC3)c3cc(-c4cc(CN5CCC(O)C5)ccc4C)ccc32)cc1 (stereo not drawn) [Example 103]
6.46	CCS(=O)(=O)c1ccc(CNC(=O)N2CC3(CCCC3)c3cc(-c4ccc(OC)cc4C(F)(F)F)ccc32)c(OC)c1 [Example 104]
6.37	COc1ccc(-c2ccc3c(c2)C2(CCCC2)CN3C(=O)NCc2ccc(S(C)(=O)=O)cc2OC)c(C(F)(F)F)c1 [Example 105]
6.19	CN(C)c1ncc(-c2ccc3c(c2)C2(CCCC2)CN3C(=O)NCc2ccc(S(C)(=O)=O)cc2)c(C(F)(F)F)n1 [Example 106]
5.82	CCC(C)c1ncncc1-c1ccc2c(c1)C1(CCCC1)CN2C(=O)NCc1ccc(S(C)(=O)=O)cc1 (stereo not drawn) [Example 107]
5.80	COc1ncc(-c2ccc3c(c2)C2(CCCC2)CN3C(=O)NCc2ccc(S(C)(=O)=O)cc2)c(C2CC2)n1 [Example 108]
5.77	COc1ncnc(C)c1-c1ccc2c(c1)C1(CCCC1)CN2C(=O)NCc1ccc(S(C)(=O)=O)cc1 [Example 109]
6.22	COc1ncnc(C(F)(F)F)c1-c1ccc2c(c1)C1(CCCC1)CN2C(=O)NCc1ccc(S(C)(=O)=O)cc1 [Example 110]
5.77	CCS(=O)(=O)c1ccc(CNC(=O)N2CC3(CCCC3)c3cc(-c4cnc(N)nc4C(F)(F)F)ccc32)cc1 [Example 111]
6.28	CCS(=O)(=O)c1ccc(CNC(=O)N2CC3(CCCC3)c3cc(-c4c(OC)ncnc4C4CC4)ccc32)cc1 [Example 112]
6.28	CCS(=O)(=O)c1ccc(CNC(=O)N2CC(C)(C3CC3)c3cc(-c4cncnc4C(C)C)ccc32)cc1 (stereo not drawn) [Example 113]
6.30	CCS(=O)(=O)c1ccc(CNC(=O)N2CC3(CCCC3)c3cc(-c4c(C)ccnc4OC)ccc32)cc1 [Example 114]
6.00	CCS(=O)(=O)c1ccc(CNC(=O)N2CC(C)(C3CCC3)c3cc(-c4cncnc4C(C)C)ccc32)cc1 (stereo not drawn) [Example 116]
6.32	CCS(=O)(=O)c1ccc(CNC(=O)N2CC(C)(C3CCC3)c3cc(-c4c(OC)ncnc4C4CC4)ccc32)cc1 (stereo not drawn) [Example 117]
